Data: ChEMBL document CHEMBL3351589, “Novel chalcone derivatives as hypoxia-inducible factor (HIF)-1 inhibitor: synthesis, anti-invasive and anti-angiogenic properties” (Eur J Med Chem, 2015)
The source made the active and inactive calls. No cut-off for these calls is given here.

Key:
[1] = Reduction of hypoxia-induced VEGF mRNA expression in human Hep3B cells after 48 hrs by RT-PCR analysis; format: functional, cell-based; settings: Hep 3B2
Mus musculus [2] = assay: Acute toxicity in Swiss mouse assessed as structural abnormality in lung at 300 mg/kg, iv after 14 days by histological analysis relative to control; format: organism-based; set-up: dose 300 mg/kg, route intravenous; settings: in vivo, 336 h
Mus musculus [3] = assay: Acute toxicity in Swiss mouse assessed as structural abnormality in kidney at 300 mg/kg, iv after 14 days by histological analysis relative to control; format: organism-based; set-up: dose 300 mg/kg, route intravenous; settings: in vivo, 336 h
Hep 3B2 [4] = assay: Antimigratory activity in human Hep3B cells assessed as inhibition of VEGF-induced migration at 0.8 to 20 uM by real time cell analysis; format: functional, cell-based
[5] = Acute toxicity in Swiss mouse assessed as mortality rate at 200 mg/kg, iv after 14 days relative to control; format: organism-based; set-up: dose 200 mg/kg, route intravenous; settings: in vivo
[6] = Reduction of hypoxia-induced VEGF expression in human Hep3B cells after 48 hrs by Western blotting analysis; format: functional, cell-based; settings: Hep 3B2
[7] = Cytotoxicity against human Hep3B cells at >20 uM after 12 hrs by MTT assay; format: cell-based; settings: hep 3b2, 12 h
HUVEC [8] = assay: Cytotoxicity against HUVEC at >20 uM after 12 hrs by MTT assay; format: cell-based; settings: human
Hep 3B2 [9] = assay: Antitumor activity against human Hep3B cells xenografted in Balb/c nude mouse assessed as reduction in MMP-2 expression at 2.5 to 5 mg/kg, iv by immunohistochemical analysis; format: functional, organism-based
[10] = Reduction of hypoxia-induced HIF-1 alpha expression in human Hep3B cells after 48 hrs by Western blotting analysis; format: functional, cell-based; settings: Hep 3B2
HUVEC [11] = assay: Antiangiogenic activity in HUVEC assessed as inhibition of VEGF-induced tube formation after 30 mins by matrigel assay; format: functional, cell-based; settings: Homo sapiens
[12] = Acute toxicity in Swiss mouse assessed as mortality rate at 300 mg/kg, iv after 14 days relative to control; format: organism-based; set-up: dose 300 mg/kg, route intravenous; settings: in vivo
[13] = Reduction of hypoxia-induced HIF-1 beta expression in human Hep3B cells after 48 hrs by Western blotting analysis; format: functional, cell-based; settings: Hep 3B2
Hep 3B2 [14] = assay: Antitumor activity against human Hep3B cells xenografted in iv dosed Balb/c nude mouse assessed as inhibition of tumor growth after 11 days; format: functional, organism-based
Mus musculus [15] = assay: Toxicity in Balb/c nude mouse xenografted with human Hep3B cells assessed as change in body weight at 2.5 to 5 mg/kg, iv; format: organism-based, Hep 3B2; set-up: dose 2.5-5 mg/kg, route intravenous; settings: in vivo
HUVEC [16] = assay: Antiinvasive activity in HUVEC assessed as inhibition of VEGF-induced invasion after 30 mins by transwell assay; format: functional, cell-based; settings: Homo sapiens
[17] = Acute toxicity in Swiss mouse assessed as mortality rate at 100 mg/kg, iv after 14 days relative to control; format: organism-based; set-up: dose 100 mg/kg, route intravenous; settings: in vivo
[18] = Acute toxicity in iv dosed Swiss mouse; format: organism-based; settings: in vivo
HUVEC [19] = assay: Antimigratory activity in HUVEC assessed as inhibition of VEGF-induced migration at 0.8 to 20 uM by real time cell analysis; format: functional, cell-based; settings: Homo sapiens
Hep 3B2 [20] = assay: Antitumor activity against human Hep3B cells xenografted in Balb/c nude mouse assessed as reduction in microvessel density at 2.5 to 5 mg/kg, iv by immunohistochemical analysis; format: functional, organism-based
Hep 3B2 [21] = assay: Antiinvasive activity in human Hep3B cells assessed as inhibition of VEGF-induced invasion after 30 mins by transwell assay; format: functional, cell-based
[22] = Reduction of hypoxia-induced HIF-1 alpha expression in human Hep3B cells at 10 uM after 48 hrs by Western blotting analysis; format: functional, cell-based; settings: Hep 3B2
[23] = Reduction of hypoxia-induced HIF-1 beta expression in human Hep3B cells at 10 uM after 48 hrs by Western blotting analysis; format: functional, cell-based; settings: Hep 3B2

SMILES: COc1ccc(/C=C/C(=O)c2ccc3c(c2O)C=CC(C)(C)O3)cc1O
- Activity [1]: Dose-dependent effect
- Activity (Mus musculus [2]): Non-toxic
- Activity (Mus musculus [3]): Non-toxic
- Activity (Hep 3B2 [4]): Active
- mortality at 336 h [5]: 0%
- Activity [6]: Dose-dependent effect
- Activity [7]: Non-toxic
- Activity (HUVEC [8]): Non-toxic
- Activity (Hep 3B2 [9]): Active
- Activity [10]: Dose-dependent effect
- inhibition (HUVEC [11]): Dose-dependent effect
- mortality at 336 h [12]: 16.7%
- Activity [13]: Dose-dependent effect
- inhibition (Hep 3B2 [14]): Dose-dependent effect
- Activity (Mus musculus [15]): Non-toxic
- Activity (HUVEC [16]): Dose-dependent effect
- mortality at 336 h [17]: 0%
- MTD [18]: 22 mg/kg
- Activity (HUVEC [19]): Active
- Activity (Hep 3B2 [20]): Active
- Activity (Hep 3B2 [21]): Dose-dependent effect

SMILES: CC[C@@]1(O)C(=O)OCc2c1cc1n(c2=O)Cc2cc3c(CN(C)C)c(O)ccc3nc2-1
- Activity [22]: Active
- Activity [23]: Active
